Molecules are shown by their SMILES. pIC50: −log10 of the molar value.

This note sets out measurements from patent publication US8420682B2, “N-phenylacetamide derivatives, which inhibit the enzyme SOAT-1, and pharmaceutical and cosmetic compositions containing them” (Galderma Research & Development, priority 2009, dated 2013).

The target of the test is T1, enzyme ACAT-1 (Homo sapiens, UniProt P35610).
T1 construct: endogenous in cells; host or cells: HepG2
T1 sequence (P35610 1-550): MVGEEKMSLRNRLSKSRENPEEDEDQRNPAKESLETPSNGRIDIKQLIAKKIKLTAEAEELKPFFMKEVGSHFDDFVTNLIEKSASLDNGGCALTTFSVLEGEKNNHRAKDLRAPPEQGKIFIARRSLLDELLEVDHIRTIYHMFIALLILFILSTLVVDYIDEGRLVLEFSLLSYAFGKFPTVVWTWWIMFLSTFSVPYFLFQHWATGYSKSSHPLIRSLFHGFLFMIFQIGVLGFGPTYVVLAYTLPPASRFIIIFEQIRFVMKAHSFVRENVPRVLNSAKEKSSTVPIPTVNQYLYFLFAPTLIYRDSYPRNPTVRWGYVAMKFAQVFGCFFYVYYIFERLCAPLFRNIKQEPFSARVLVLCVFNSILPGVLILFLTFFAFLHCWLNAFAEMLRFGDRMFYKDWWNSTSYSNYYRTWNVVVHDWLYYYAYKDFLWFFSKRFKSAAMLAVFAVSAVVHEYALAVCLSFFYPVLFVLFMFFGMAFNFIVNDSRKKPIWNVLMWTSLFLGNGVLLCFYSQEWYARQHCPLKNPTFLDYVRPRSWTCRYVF
Briefly: HepG2 NBD-cholesterol fluorescence test for inhibitory activity towards the enzyme ACAT-1 (SOAT-1). The format is cell-based. The settings on record: HepG2 cells, NBD-cholesterol 1 μg/ml, incubation 6 hours at 37° C., fluorescence read (excitation 490 nm, emission 540 nm). On the procedure:
The compounds (I) according to the invention, and also the pharmaceutically acceptable salts, solvates and/or hydrates thereof, have inhibitory properties on the enzyme SOAT-1. This inhibitory activity on the enzyme SOAT-1 is measured according to a HepG2 primary […] test, as described in Example 7.
The compounds of formula (I) according to the invention were subjected to a test for evaluating their inhibitory activity towards the enzyme ACAT-1, inspired by the following publication: “Identification of ACAT1- and ACAT2-specific inhibitors using a novel, cell based fluorescence assay: individual ACAT uniqueness”, J. Lipid. Res. (2004) vol. 45, pages 378-386.
The principle of this test is based on the use of NBD-cholesterol, a cholesterol analogue whose fluorescence depends on its environment. When this molecule is in a polar environment, it is weakly fluorescent, whereas in a non-polar environment it is strongly fluorescent. Free NBD-cholesterol becomes inserted in cell membranes and is weakly fluorescent in this polar environment. When NBD-cholesterol is esterified with ACAT, the NBD-cholesterol ester enters non-polar lipid droplets and is then strongly fluorescent.
The method below is applied: HepG2 cells are incubated in the presence of NBD-cholesterol (1 μg/ml) and of the test compound of formula (I) in black transparent-bottomed 96-well plates, at a rate of 30 000 cells per well. After incubation for 6 hours at 37° C. under 5% CO2, the medium is removed by turning upside-down and the cells are washed with twice 100 μl of PBS. After addition of 50 μl of lysis buffer (10 mM NaPO4, 1% Igepal), the plates are shaken for 5 minutes and the fluorescence is read (excitation at 490 nm, emission at 540 nm) on a Fusion machine (Perkin-Elmer).
Consider `Cc1ccc(N2C(=O)N(CC(=O)Nc3c(C(C)C)cccc3C(C)C)C(=O)C23CCCCC3)cc1C#N` [Compound 3, 2-[1-(3-cyano-4-methylphenyl)-2,4-dioxo-1,3-diaza-spiro[4.5]dec-3-yl]-N-(2,6-diisopropylphenyl)acetamide], for which the pIC50 was 8.60.
In the case of `CC(C)c1cccc(C(C)C)c1NC(=O)CN1C(=O)N(c2ccc(C#N)cc2)C2(CCCCC2)C1=O` [Compound 2, 2-[1-(4-Cyanophenyl)-2,4-dioxo-1,3-diaza-spiro[4.5]dec-3-yl]-N-(2,6-diisopropylphenyl)acetamide], the pIC50 was 7.11.
Consider `CCOC(=O)c1ccc(N2C(=O)N(CC(=O)Nc3c(C(C)C)cccc3C(C)C)C(=O)C23CCCCC3)cc1` [Compound 1, 4-{3-[(2,6-Diisopropylphenylcarbamoyl)-methyl]-2,4-dioxo-1,3-diazaspiro[4.5]dec-1-yl}benzoic acid ethyl ester], for which the pIC50 is 8.62. This pIC50 lies 1.51 log units higher than the previous one.
`CC(C)c1cccc(C(C)C)c1NC(=O)CN1C(=O)N(c2ccc(S(C)(=O)=O)cc2)C2(CCCCC2)C1=O` [Compound 5, N-(2,6-Diisopropylphenyl)-2-[1-(4-methanesulfonylphenyl)-2,4-dioxo-1,3-diaza-spiro[4.5]dec-3-yl]acetamide] had a pIC50 of 7.51.
`CSc1ccc(N2C(=O)N(CC(=O)Nc3c(C(C)C)cccc3C(C)C)C(=O)C23CCCCC3)cc1` [Compound 4, N-(2,6-diisopropylphenyl)-2-[1-(4-methylsulfanyl-phenyl)-2,4-dioxo-1,3-diazaspiro[4.5]dec-3-yl]acetamide] showed a pIC50 of 8.82.

As a reminder, the pIC50 is −log10 of the IC50, conventionally taken in molar units. Low readings indicate a high IC50, high ones a low IC50.
